According to patent publication EP0413289B1 (priority 1989, dated 1991):
Values after ≈ are worked out from the molar mass of the structure shown.

Legend:
[1] = tested on: panel of fifteen human rhinovirus (HRV) serotypes; test: plaque reduction assay, panel of fifteen human rhinovirus serotypes (MIC50/MIC80); type: cell-based; settings: for MIC50: concentration required to inhibit 50% of the tested serotypes, HeLa (Wisconsin) cells, read-out: MIC₅₀ (Rhinovirus); for MIC₈₀ (N) (Rhinovirus): concentration required to inhibit 80% of the tested serotypes, N in parentheses = number of serotypes tested
Procedure: (§1) The MIC values were determined by a standard plaque reduction assay as follows: HeLa (Wisconsin) cells in monolayers were infected at a concentration of virus to give approximately 80 plaques per monolayer in the virus control (no drug present). The compound to be tested was serially diluted and included in the agar-medium overlay and in some cases, during the adsorption period as well. The MIC was determined to be that concentration of compound which reduced the number of plaques by 50% with respect to the untreated virus control.
(§2) In the standard test procedures, the compounds were tested against a panel of fifteen human rhinovirus (HRV) serotypes, namely HRV-2, -1A, -1B, -6, -14, -21, -22, -15, -25, -30, -50, -67, -89, -86 and -41. The MIC value for each rhinovirus serotype was determined, and the efficacy of each compound was determined in terms of MIC₅₀ and MIC₈₀ values, which is the concentration of the compound required to inhibit 50% and 80%, respectively, of the tested serotypes.
The following Table gives the testing results with the compounds of the invention. For some of the compounds, the MIC₅₀ and MIC₈₀ values are based on the testing of fewer than 15 rhinovirus serotypes. In these cases the number of serotypes (N) is indicated in parentheses after the MIC₈₀ figure.

HRV-1A = test: plaque reduction assay, rhinovirus serotype 1A; type: cell-based, human rhinovirus (HRV); settings: 50% plaque reduction, HeLa (Wisconsin) cells, read-out: MIC
Procedure: as §1, §2
(§3) The following Table compares the MIC values for the compound of Example 10(c) and the methylated derivative of Example 11(c) against 15 rhinovirus serotypes: […]

HRV-1B = test: plaque reduction assay, rhinovirus serotype 1B; type: cell-based, human rhinovirus (HRV); settings: 50% plaque reduction, HeLa (Wisconsin) cells, read-out: MIC
Procedure: as §1, §2, §3

HRV-2 = test: plaque reduction assay, rhinovirus serotype 2; type: cell-based, human rhinovirus (HRV); settings: 50% plaque reduction, HeLa (Wisconsin) cells, read-out: MIC
Procedure: as §1, §2, §3

HRV-6 = test: plaque reduction assay, rhinovirus serotype 6; type: cell-based, human rhinovirus (HRV); settings: Enterovirus, HRV6, 50% plaque reduction, HeLa (Wisconsin) cells, read-out: MIC
Procedure: as §1, §2, §3

HRV-14 = test: plaque reduction assay, rhinovirus serotype 14; type: cell-based, human rhinovirus (HRV); settings: 50% plaque reduction, HeLa (Wisconsin) cells, read-out: MIC
Procedure: as §1, §2, §3

HRV-15 = test: plaque reduction assay, rhinovirus serotype 15; type: cell-based, human rhinovirus (HRV); settings: Enterovirus, HRV15, 50% plaque reduction, HeLa (Wisconsin) cells, read-out: MIC
Procedure: as §1, §2, §3

HRV-21 = test: plaque reduction assay, rhinovirus serotype 21; type: cell-based, human rhinovirus (HRV); settings: Enterovirus, HRV21, 50% plaque reduction, HeLa (Wisconsin) cells, read-out: MIC
Procedure: as §1, §2, §3

HRV-22 = test: plaque reduction assay, rhinovirus serotype 22; type: cell-based, human rhinovirus (HRV); settings: Enterovirus, HRV22, 50% plaque reduction, HeLa (Wisconsin) cells, read-out: MIC
Procedure: as §1, §2, §3

HRV-25 = test: plaque reduction assay, rhinovirus serotype 25; type: cell-based, human rhinovirus (HRV); settings: Enterovirus, HRV25, 50% plaque reduction, HeLa (Wisconsin) cells, read-out: MIC
Procedure: as §1, §2, §3

HRV-30 = test: plaque reduction assay, rhinovirus serotype 30; type: cell-based, human rhinovirus (HRV); settings: Enterovirus, HRV30, 50% plaque reduction, HeLa (Wisconsin) cells, read-out: MIC
Procedure: as §1, §2, §3

HRV-41 = test: plaque reduction assay, rhinovirus serotype 41; type: cell-based, human rhinovirus (HRV); settings: Enterovirus, HRV41, 50% plaque reduction, HeLa (Wisconsin) cells, read-out: MIC
Procedure: as §1, §2, §3

HRV-50 = test: plaque reduction assay, rhinovirus serotype 50; type: cell-based, human rhinovirus (HRV); settings: Enterovirus, HRV50, 50% plaque reduction, HeLa (Wisconsin) cells, read-out: MIC
Procedure: as §1, §2, §3

HRV-67 = test: plaque reduction assay, rhinovirus serotype 67; type: cell-based, human rhinovirus (HRV); settings: Enterovirus, HRV67, 50% plaque reduction, HeLa (Wisconsin) cells, read-out: MIC
Procedure: as §1, §2, §3

HRV-86 = test: plaque reduction assay, rhinovirus serotype 86; type: cell-based, human rhinovirus (HRV); settings: Enterovirus, HRV86, 50% plaque reduction, HeLa (Wisconsin) cells, read-out: MIC
Procedure: as §1, §2, §3

HRV-89 = test: plaque reduction assay, rhinovirus serotype 89; type: cell-based, human rhinovirus (HRV); settings: 50% plaque reduction, HeLa (Wisconsin) cells, read-out: MIC
Procedure: as §1, §2, §3

Polio 2 = test: microbe, parasite or virus in culture; type: cell-based; settings: HeLa, read-out: MIC (Polio 2)

CCc1cc(CCCOc2c(C)cc(-c3noc(C)n3)cc2C)on1 [Example 8(c), 5-{3-[2,6-dimethyl-4-(5-methyl-1,2,4-oxadiazol-3-yl)phenoxy]propyl}-3-ethylisoxazole]
MIC50 [1]: 0.017 µg/mL (≈ 0.0498 µM)
MIC₈₀ (N) (Rhinovirus) [1]: 0.05 (6) micrograms per milliliter

Cc1cc(CCCCCOc2c(C)cc(-c3noc(C)n3)cc2C)on1 [Example 6, 5-{5-[2,6-dimethyl-4-(5-methyl-1,2,4-oxadiazol-3-yl)phenoxy]pentyl}-3-methylisoxazole]
MIC50 [1]: 0.018 µg/mL (≈ 0.0506 µM)
MIC₈₀ (N) (Rhinovirus) [1]: 0.10 (5) micrograms per milliliter

CCc1cc(CCCOc2c(C)cc(-c3nc(C)no3)cc2C)on1 [4(d), 5-{3-[2,6-Dimethyl-4-(3-methyl-1,2,4-oxadiazol-5-yl)-phenoxy]propyl}-3-ethylisoxazole]
MIC50 [1]: 0.042 µg/mL (≈ 0.123 µM)
MIC₈₀ (N) (Rhinovirus) [1]: 0.15 (15) micrograms per milliliter

CCCc1cc(CCCOc2c(C)cc(-c3nc(C)no3)cc2C)on1 [5(e), 5-{3-[2,6-dimethyl-4-(3-methyl-1,2,4-oxadiazol-5-yl)phenoxy]propyl}-3-(n-propyl)isoxazole]
MIC50 [1]: 0.036 µg/mL (≈ 0.101 µM)
MIC₈₀ (N) (Rhinovirus) [1]: 0.06 (7) micrograms per milliliter

Cc1cc(CCCCCOc2c(C)cc(-c3nnc(C)o3)cc2C)on1 [Example 14, 5-{5-[2,6-Dimethyl-4-(5-methyl-1,3,4-oxadiazol-2-yl)phenoxy]pentyl}-3-methylisoxazole]
MIC50 [1]: 0.34 µg/mL (≈ 0.957 µM)
MIC₈₀ (N) (Rhinovirus) [1]: 0.67 (2) micrograms per milliliter

Cc1cc(CCCCCOc2c(C)cc(-c3nc(C)no3)cc2C)on1 [2(b), 5-{5-[2,6-dimethyl-4-(3-methyl-1,2,4-oxadiazol-5-yl)phenoxy]pentyl}-3-methylisoxazole]
MIC50 [1]: 0.053 µg/mL (≈ 0.149 µM)
MIC₈₀ (N) (Rhinovirus) [1]: 0.42 (6) micrograms per milliliter

Cc1cc(CCCCCCCOc2ccc(-c3nnc(C)o3)cc2)on1 [Example 13, 3-Methyl-5-{7-[4-(5-methyl-1,3,4-oxadiazol-2-yl)phenoxy]-heptyl}isoxazole]
MIC50 [1]: 2.3 µg/mL (≈ 6.47 µM)
MIC₈₀ (N) (Rhinovirus) [1]: 3.2 (2) micrograms per milliliter

Cc1cc(CCCCCOc2c(Cl)cc(-c3nnc(C)o3)cc2Cl)on1 [Example 11(c), 5-{5-[2,6-dichloro-4-(5-methyl-1,3,4-oxadiazol-2-yl)phenoxy]pentyl}-3-methylisoxazole]
MIC50 [1]: 0.14 µg/mL (≈ 0.353 µM)
MIC₈₀ (N) (Rhinovirus) [1]: 0.46 (15) micrograms per milliliter
EC50 (HRV-1A): 0.44 µg/mL (≈ 1.11 µM)
EC50 (HRV-1B): 0.14 µg/mL (≈ 0.353 µM)
EC50 (HRV-2): 0.016 µg/mL (≈ 0.0404 µM)
EC50 (HRV-6): 0.46 µg/mL (≈ 1.16 µM)
EC50 (HRV-14): 0.19 µg/mL (≈ 0.479 µM)
EC50 (HRV-15): 0.42 µg/mL (≈ 1.06 µM)
EC50 (HRV-21): 0.0092 µg/mL (≈ 0.0232 µM)
EC50 (HRV-22): 0.018 µg/mL (≈ 0.0454 µM)
EC50 (HRV-25): 0.7 µg/mL (≈ 1.77 µM)
EC50 (HRV-30): 0.031 µg/mL (≈ 0.0782 µM)
EC50 (HRV-41): 99 µg/mL (≈ 250 µM)
EC50 (HRV-50): 0.041 µg/mL (≈ 0.103 µM)
EC50 (HRV-67): 0.1 µg/mL (≈ 0.252 µM)
EC50 (HRV-86): 0.57 µg/mL (≈ 1.44 µM)
EC50 (HRV-89): 0.01 µg/mL (≈ 0.0252 µM)

Cc1cc(CCCOc2c(C)cc(-c3nc(C)no3)cc2C)on1 [3(b), 5-{3-[2,6-Dimethyl-4-(3-methyl-1,2,4-oxadiazol-5-yl)-phenoxy]propyl}-3-methylisoxazole]
MIC50 [1]: 0.026 µg/mL (≈ 0.0794 µM)
MIC₈₀ (N) (Rhinovirus) [1]: 0.12 (15) micrograms per milliliter

Cc1cc(CCCOc2c(C)cc(-c3noc(C)n3)cc2C)on1 [Example 7, 5-{3-[2,6-Dimethyl-4-(5-methyl-1,2,4-oxadiazol-3-yl)phenoxy]propyl}-3-methylisoxasole]
MIC50 [1]: 0.012 µg/mL (≈ 0.0367 µM)
MIC₈₀ (N) (Rhinovirus) [1]: 0.069 (13) micrograms per milliliter

Cc1cc(CCCCCOc2c(Cl)cc(-c3nnco3)cc2Cl)on1 [Example 10(c), 5-{5-[2,6-Dichloro-4-(1,3,4-oxadiazol-2-yl)phenoxy]-pentyl}-3-methylisoxazole, reference compound]
EC50 (Polio 2): 2.24 µg/mL (≈ 5.86 µM)
MIC50 [1]: 0.25 µg/mL (≈ 0.654 µM)
MIC₈₀ (N) (Rhinovirus) [1]: 0.91 micrograms per milliliter
EC50 (HRV-1A): 1.45 µg/mL (≈ 3.79 µM)
EC50 (HRV-1B): 0.53 µg/mL (≈ 1.39 µM)
EC50 (HRV-2): 0.41 µg/mL (≈ 1.07 µM)
EC50 (HRV-6): 7.06 µg/mL (≈ 18.5 µM)
EC50 (HRV-14): 2.02 µg/mL (≈ 5.28 µM)
EC50 (HRV-15): 1.92 µg/mL (≈ 5.02 µM)
EC50 (HRV-21): 0.24 µg/mL (≈ 0.628 µM)
EC50 (HRV-22): 0.45 µg/mL (≈ 1.18 µM)
EC50 (HRV-25): 2.42 µg/mL (≈ 6.33 µM)
EC50 (HRV-30): 0.1 µg/mL (≈ 0.262 µM)
EC50 (HRV-41): 2.76 µg/mL (≈ 7.22 µM)
EC50 (HRV-50): 0.091 µg/mL (≈ 0.238 µM)
EC50 (HRV-67): 0.64 µg/mL (≈ 1.67 µM)
EC50 (HRV-86): 1.28 µg/mL (≈ 3.35 µM)
EC50 (HRV-89): 0.28 µg/mL (≈ 0.733 µM)

Cc1cc(CCCCCOc2ccc(-c3nnco3)cc2)on1 [Example 1, 3-Methyl-5-{5-[4-(1,3,4-oxadiazol-2-yl)phenoxy]pentyl}-isoxazole, reference compound]
EC50 (Polio 2): 0.05 µg/mL (≈ 0.16 µM)
MIC₈₀ (N) (Rhinovirus) [1]: 2.56 (1) micrograms per milliliter

CCCc1cc(CCCOc2c(C)cc(-c3noc(C)n3)cc2C)on1 [Example 9, 5-{3-[2,6-Dimethyl-4-(5-methyl-1,2,4-oxadiazol-3-yl)phenoxy]propyl}-3-propylisoxazole]
MIC50 [1]: 0.025 µg/mL (≈ 0.0703 µM)
MIC₈₀ (N) (Rhinovirus) [1]: 0.04 (6) micrograms per milliliter

Cc1cc(CCCOc2c(C)cc(-c3nnc(C)o3)cc2C)on1 [12(d), 5-{3-[2,6-Dimethyl-4-(5-methyl-1,3,4-oxadiazol-2-yl)-phenoxy]propyl}-3-methylisoxazole]
MIC50 [1]: 0.054 µg/mL (≈ 0.165 µM)
MIC₈₀ (N) (Rhinovirus) [1]: 0.35 (6) micrograms per milliliter
